Measurements as given in ChEMBL document CHEMBL1667806, “Synthesis and evaluation of anti-tubercular activity of new dithiocarbamate sugar derivatives” (2011).
Values after ≈ are worked out from the molar mass of the structure shown.

How the values were obtained:
Format in all cases: functional
[1] = system: Mycobacterium tuberculosis; test: Antimycobacterial activity against INH, RFP, EB, KM, LVFX, SPFX, CPFX-resistant Mycobacterium tuberculosis isolate 5
[2] = system: Mycobacterium tuberculosis; test: Antimycobacterial activity against INH, RFP, EB, KM, LVFX, SPFX, CPFX-resistant Mycobacterium tuberculosis isolate 11
[3] = system: Mycobacterium tuberculosis; test: Antimycobacterial activity against INH, RFP, EB, LVFX, SPFX, CPFX-resistant Mycobacterium tuberculosis isolate 2
[4] = system: Mycobacterium tuberculosis; test: Antimycobacterial activity against INH, RFP, SM, EB, PAS, LVFX-resistant Mycobacterium tuberculosis isolate 19
[5] = system: Mycobacterium tuberculosis; test: Antimycobacterial activity against INH, RFP, SM, EB, PAS-resistant Mycobacterium tuberculosis isolate 18
[6] = system: Mycobacterium tuberculosis; test: Antimycobacterial activity against RFP-resistant Mycobacterium tuberculosis isolate 7
[7] = system: Mycobacterium tuberculosis; test: Antimycobacterial activity against INH, RFP, EB, LVFX, SPFX, CPFX-resistant Mycobacterium tuberculosis isolate 1
[8] = system: Mycobacterium tuberculosis; test: Antimycobacterial activity against INH, RFP, ETH-resistant Mycobacterium tuberculosis isolate 20
[9] = system: Mycobacterium tuberculosis; test: Antimycobacterial activity against INH, RFP, EB, LVFX, SPFX, CPFX-resistant Mycobacterium tuberculosis isolate 15
[10] = system: Mycobacterium tuberculosis; test: Antimycobacterial activity against INH, RFP, SM, EB, KM, LVFX, SPFX, CPFX-resistant Mycobacterium tuberculosis isolate 6
[11] = system: Mycobacterium tuberculosis; test: Antimycobacterial activity against INH, RFP, SM, EB-resistant Mycobacterium tuberculosis isolate 13
[12] = system: Mycobacterium tuberculosis; test: Antimycobacterial activity against INH, RFP, SM, EB, KM, PAS, EVM, LVFX-resistant Mycobacterium tuberculosis isolate 16
[13] = system: Mycobacterium tuberculosis; test: Antimycobacterial activity against INH, RFP, KM, LVFX, SPFX, CPFX-resistant Mycobacterium tuberculosis isolate 9
[14] = system: Mycobacterium tuberculosis; test: Antimycobacterial activity against INH, RFP, EB-resistant Mycobacterium tuberculosis isolate 14
[15] = system: Mycobacterium tuberculosis; test: Antimycobacterial activity against INH, RFP, EB-resistant Mycobacterium tuberculosis isolate 12
[16] = system: Mycobacterium tuberculosis; test: Antimycobacterial activity against INH, RFP, EB, LVFX, CPFX-resistant Mycobacterium tuberculosis isolate 4
[17] = system: Mycobacterium tuberculosis; test: Antimycobacterial activity against RFP-resistant Mycobacterium tuberculosis isolate 10
[18] = system: Mycobacterium tuberculosis; test: Antimycobacterial activity against INH, RFP-resistant Mycobacterium tuberculosis isolate 17
[19] = system: Mycobacterium tuberculosis; test: Antimycobacterial activity against RFP, EB-resistant Mycobacterium tuberculosis isolate 3
[20] = system: Mycobacterium tuberculosis; test: Antimycobacterial activity against RFP-resistant Mycobacterium tuberculosis isolate 8

SMILES | MIC [1] [µg/mL] | MIC [2] [µg/mL] | MIC [3] [µg/mL] | MIC [4] [µg/mL] | MIC [5] [µg/mL] | MIC [6] [µg/mL] | MIC [7] [µg/mL] | MIC [8] [µg/mL] | MIC [9] [µg/mL] | MIC [10] [µg/mL] | MIC [11] [µg/mL] | MIC [12] [µg/mL] | MIC [13] [µg/mL] | MIC [14] [µg/mL] | MIC [15] [µg/mL] | MIC [16] [µg/mL] | MIC [17] [µg/mL] | MIC [18] [µg/mL] | MIC [19] [µg/mL] | MIC [20] [µg/mL]
N.S=C(S)N1CCCC1 [PYRROLIDINE DITHIOCARBAMIC ACID, AMMONIUM SALT] | 0.2 | 0.2 | 0.2 | 0.4 | 0.2 | 0.2 | 0.2 | 0.2 | 0.2 | 0.2 | 0.2 | 0.2 | 0.2 | 0.2 | 0.2 | 0.4 | 0.4 | 0.2 | 0.2 | 0.2
CC(=O)N[C@@H]1[C@@H](O)[C@H](O)[C@@H](CO)O[C@H]1SC(=S)N1CCCC1 | 6.25 (≈ 17.8 µM) | 12.5 (≈ 35.7 µM) | 6.25 (≈ 17.8 µM) | 12.5 (≈ 35.7 µM) | 6.25 (≈ 17.8 µM) | 6.25 (≈ 17.8 µM) | 6.25 (≈ 17.8 µM) | 6.25 (≈ 17.8 µM) | 6.25 (≈ 17.8 µM) | 6.25 (≈ 17.8 µM) | 6.25 (≈ 17.8 µM) | 6.25 (≈ 17.8 µM) | 6.25 (≈ 17.8 µM) | 6.25 (≈ 17.8 µM) | 6.25 (≈ 17.8 µM) | 12.5 (≈ 35.7 µM) | 12.5 (≈ 35.7 µM) | 6.25 (≈ 17.8 µM) | 6.25 (≈ 17.8 µM) | 6.25 (≈ 17.8 µM)
